Results as given in ChEMBL document CHEMBL1129166, “Design and synthesis of novel, pseudo C2 symmetric inhibitors of HIV protease” (Bioorg Med Chem Lett, 1996).

Tests used:
[1] = biological target: Human immunodeficiency virus type 1 protease (Human immunodeficiency virus 1, UniProt Q72874); test: Compound was evaluated for the inhibition of HIV protease
[2] = biological target: Human immunodeficiency virus type 1 protease (Human immunodeficiency virus 1) (UniProt Q72874); test: Compound was evaluated for the inhibition of HIV protease at 0.5 uM

Row | Compound | IC50 [1] [nM] | inhibition [2] [%]
1 | CC(C)[C@H](NC(=O)OCc1ccccc1)C(=O)N[C@@H](Cc1ccccc1)CC1(C[C@H](Cc2ccccc2)NC(=O)[C@@H](NC(=O)OCc2ccccc2)C(C)C)CCC(=O)N1 | 2700 | 
2 | O=C(Nc1ccccc1C(=O)N[C@H](CC[C@H](O)[C@H](Cc1ccccc1)NC(=O)c1ccccc1NC(=O)OCc1ccccn1)Cc1ccccc1)OCc1ccccn1 | 14 | 
3 | CC(C)C(NC(=O)OCc1ccccc1)C(=O)N[C@H](CC[C@H](O)[C@H](Cc1ccccc1)NC(=O)C(NC(=O)OCc1ccccc1)C(C)C)Cc1ccccc1 (stereo not given in full) | > 1 | 62
4 | CC(C)[C@H](NC(=O)N(C)Cc1ccccn1)C(=O)N[C@@H](Cc1ccccc1)[C@H](O)[C@H](O)[C@H](Cc1ccccc1)NC(=O)[C@@H](NC(=O)N(C)Cc1ccccn1)C(C)C [A-77003] | > 1 | 57
5 | CC(C)(C)OC(=O)N[C@H](CC[C@H](O)[C@H](Cc1ccccc1)NC(=O)OC(C)(C)C)Cc1ccccc1 | 380 | 
6 | CC(C)C(NC(=O)OCc1ccccc1)C(=O)N[C@@H](Cc1ccccc1)CC(C[C@H](Cc1ccccc1)NC(=O)C(NC(=O)OCc1ccccc1)C(C)C)[N+](=O)[O-] (stereo not given in full) | 1500 | 
7 | O=C(N[C@H](CC[C@H](O)[C@H](Cc1ccccc1)NC(=O)c1ccccc1NS(=O)(=O)c1ccccn1)Cc1ccccc1)c1ccccc1NS(=O)(=O)c1ccccn1 | > 3000 | 
8 | CC(C)C(NC(=O)OCc1ccccc1)C(=O)N[C@H](CC[C@@H](O)[C@H](Cc1ccccc1)NC(=O)C(NC(=O)OCc1ccccc1)C(C)C)Cc1ccccc1 (stereo not given in full) | 200 | 
